Experimental data taken from patent US11419934B2, “Use of VDAS to enhance immunomodulating therapies against tumors” (Oncotelic Therapeutics, Inc., priority 2015, dated 2022).

Assays:
[1] = system: EMT-6 mouse mammary tumor cells; assay: antitumor activity in mice bearing subcutaneous EMT-6 mouse mammary tumor cells; assay type: in vivo
Protocol: A randomized trial was conducted to evaluate the antitumor activity of fosbretabulin tromethamine (CA4P) in mice bearing subcutaneous EMT-6 mouse mammary tumor cells in combination with other treatments. Other treatments include a combination treatment with anti-CTLA-4 antibody (ref: BE0131, Bioxcell; clone: 9H10; reactivity: mouse; isotype: Hamster IgG1; storage conditions: +4° C.).
CA4P and anti-CTLA-4 antibodies were prepared in phosphate buffered saline (PBS). CA4P was injected at the dose of 100 mg/kg. The anti-CTLA-4 antibody was injected at the dose of 10 mg/kg. The tested items were injected into the peritoneal cavity of mice (e.g. intraperitoneally, IP). The administration volume was 10 mL/kg (200 μL/mouse of 20 g) adjusted to the most recent individual body weight of the mice.
An EMT-6 cell line having an ATCC origin and a culture medium was used. The EMT-6 cell line was established from a transplantable murine mammary carcinoma that arose in a BALB/cCRGL mouse after implantation of a hyperplastic mammary alveolar nodule. EMT-6 tumor cells were grown as a monolayer at 37° C. in a humidified atmosphere (5% CO2, 95% air). The culture medium was RPMI 1640 containing 2 mM L-glutamine (ref: BE12-702F, Lonza, Verviers, Belgium) supplemented with 10% fetal bovine serum (ref: 3302, Lonza).
Healthy female Balb/C mice, 6-8 weeks old at reception, were used in the study. […]

[2] = system: T-cell mediated immune response; conditions: J. Immunol. 2007; 178: 1573-1580; cited from earlier work

| Compound | average tumor size (tumor volume versus time, FIG. 1) ([1]; Balb/C mice, EMT-6 tumors, CA4P 100 mg/kg IP, anti-CTLA-4 10 mg/kg IP, TWx2) | mice showing tumor regression ([1]; groups of 8 Balb/C mice, subcutaneous EMT-6 tumors, CA4P 100 mg/kg IP TWx2, anti-CTLA-4 10 mg/kg IP TWx2) | effect on T-cell mediated immune response [2] |
| --- | --- | --- | --- |
| COc1ccc(/C=C\c2cc(OC)c(OC)c(OC)c2)cc1OP(=O)(O)O.NC(CO)(CO)CO [CA4P, fosbretabulin tromethamine] | steadily increased | One of the eight | – |
| COc1cc2c(c(OC)c1OC)-c1ccc(OP(=O)(O)O)cc1[C@@H](NC(C)=O)CC2 [ZD6126] | – | – | may reduce T-cell mediated immune response |
